# Measured values published in US10960020B2, “Modulation of PCSK9 and LDLR through DRP1 inhibition” (THE BRIGHAM AND WOMEN'S HOSPITAL, INC., priority 2016, dated 2021).
# “Also recorded” adds a separate entry of the source.
# Tests used:
# Type in all cases: cell-based, human
# PCSK9 mRNA = test: Real time PCR, HepG2 PCSK9 mRNA; details: HepG2, Mdivi-1 50 μM, 24 hours
# Excerpt: (§1) Human cells and mouse liver was homogenized with TriZolTM (Life Technologies, Grand Island, N.Y.) to isolate RNA. QuantiTectTM Reverse Transcription Kit (Qiagen, Hilden, Germany) was used for reverse transcription on total RNA. cDNA was generated using the Quanta gScriptTM cDNA Synthesis Kit (Bioscience Inc., Gaithersburg, Md.). mRNA levels were quantified on a 7900HT real-time PCR system (Thermo Fisher Scientific) using TaqManTM real-time PCR with the following probes: Hs02758991_g1 (human GAPDH); Mm99999915_g1 (mouse Gapdh); Hs00236329 m1 (human BCL2L1); Hs00247147_m1 (human DRP1); Hs00545399_m1 (human PCSK9); Mm01263610_m1 (mouse Pcsk9); Hs00168352_m1 (human HMGCR); […]); Hs00181192_m1 (human LDLR); Mm00440169_m1 (mouse Ldlr); Hs01088691_m1 (human SREBP1); Mm00550338_m1 (mouse Srebp1); Hs00231674_m1 (human SREBP1a); custom primer (human SREBP1c); Hs01081784_m1 (human SREBP2); Mm01306292_m1 (mouse Srebp2); Hs01005622_m1 (human FASN); […]); Hs00167041_m1 (human HNF1A); Mm00493434_m1 (mouse Hnf1a); Hs00171168 (human APOE); Hs01059118_m1 (human ABCA1); Hs01103582_s1 (human JUN). Mouse SREBP-1c was analyzed by SYBERTM green PCR with the following primers: [NT] All expression levels were normalized to GAPDH using the ΔΔCT method.
# LDLR protein = test: Western blot, HepG2 LDLR protein; details: HepG2, 24 hours; Mdivi-1 50 μM, pitavastatin 1 μM, T0901317 1 μM
# BCL-XL = BCL-XL mRNA and protein, HepG2; details: HepG2, Mdivi-1 50 μM, 24 hours
# Excerpt: as §1, with “[…] Protein concentrations were determined by the Pierce BCA AssayTM (Thermo Fisher Scientific). […] Protein” for “All expression”, “β-ACTIN, α-TUBULIN, or LAMIN A/C with” for “GAPDH using”, “use of NIH ImageJ software for quantification.” for “ΔΔCT method.”
compound,measurement,setting,value
"COc1cc(-n2c(S)nc3ccccc3c2=O)c(Cl)cc1Cl [Mdivi-1, 3-(2,4-Dichloro-5-methoxyphenyl)-2,3-dihydro-2-thioxo-4(1H)-quinazolinone]",Cellular PCSK9 mRNA,PCSK9 mRNA,reduced; also recorded: strongly reduced
same,HepG2 LDLR protein increase,LDLR protein,5.8 fold
same,BCL-XL abundance (protein),BCL-XL,increased
same,BCL-XL expression (BCL2L1 mRNA),BCL-XL,increased
